Molecular target: T1, PoABF62 (Penicillium oxalicum, UniProt A0A2R4KZP3)
T1 construct: heterologously produced (fungal host), purified, supplied by Novozymes
Test: HPAEC-PAD of hydrolysis products
Assay type: biochemical
Settings: 10 mM ammonium acetate pH 5.0, 40 °C, 24 h, 100 μg/mL substrate

T1 sequence (A0A2R4KZP3 31-331): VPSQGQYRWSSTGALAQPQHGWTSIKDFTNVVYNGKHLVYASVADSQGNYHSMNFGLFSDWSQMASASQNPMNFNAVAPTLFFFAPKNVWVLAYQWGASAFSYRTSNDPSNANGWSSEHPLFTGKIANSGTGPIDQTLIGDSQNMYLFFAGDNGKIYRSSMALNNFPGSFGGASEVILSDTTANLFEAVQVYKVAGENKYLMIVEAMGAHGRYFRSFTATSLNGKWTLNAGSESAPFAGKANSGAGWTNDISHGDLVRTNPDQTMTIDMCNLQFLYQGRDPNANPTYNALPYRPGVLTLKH

## OC[C@@H]1O[C@@H](O[C@H]2[C@H](O[C@@H]3CO[C@@H](O[C@@H]4COC(O)[C@H](O)[C@H]4O)[C@H](O)[C@H]3O)OC[C@@H](O)[C@@H]2O)[C@H](O)[C@H]1O (stereo partly drawn) [A2XX, 2-α-L-arabinofuranosyl-xylotriose]
  HPAEC-PAD of hydrolysis products: PoABF62 and MgABF51 were highly active on all monosubstituted AXOS

## OC[C@@H]1O[C@@H](O[C@@H]2[C@@H](O)[C@H](O[C@@H]3CO[C@@H](O[C@@H]4COC(O)[C@H](O)[C@H]4O)[C@H](O)[C@H]3O)OC[C@H]2O[C@@H]2OC[C@@H](O)[C@H](O)[C@H]2O)[C@H](O)[C@H]1O (stereo partly drawn) [XA3XX, 3-α-L-arabinofuranosyl-xylotetraose]
XA2XX/XA3XX mixture
  HPAEC-PAD of hydrolysis products: PoABF62 and MgABF51 were highly active on all monosubstituted AXOS

Source: paper PMC9693073, “Two Subgroups within the GH43_36 α-L-Arabinofuranosidase Subfamily Hydrolyze Arabinosyl from Either Mono-or Disubstituted Xylosyl Units in Wheat Arabinoxylan” (International Journal of Molecular Sciences, 2022)
